Source: PubChem BioAssay AID1963971 (Molecular Pharmacology Branch, DTP, NCI, 2024)
“And” between values parts separate entries of the source, which are not always exact repeats. Identical values can stand only once.

Tested on: 953936-095-R-J2-PDC spheroids with HUVEC/MSC, viability
Experiment: Anticancer human tumor 953936-095-R-J2-PDC patient-derived cervical squamous cell carcinoma cell line growth inhibition [PI3K]
Settings: for viability, T/C: stronger effect = lower value
In short: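 We assembled tumor spheroids that included a stromal compartment of HUVEC and MSCs, then exposed them to targeted agents alone and together with PI3K pathway inhibitors. Concentration series descended by half-log from clinically achievable Cmax levels. Viability served as the endpoint.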

[1] = curve of first compound, second compound 0.0316 µM
[2] = curve of first compound, second compound 0.1 µM
[3] = curve of first compound, second compound 0.316 µM
[4] = curve of first compound, second compound 1 µM
[5] = second compound 0.0316 µM, first compound 0.0316 µM
[6] = second compound 0.0316 µM, first compound 0.1 µM
[7] = second compound 0.0316 µM, first compound 0.316 µM
[8] = second compound 0.0316 µM, first compound 1 µM
[9] = second compound 0.1 µM, first compound 0.0316 µM
[10] = second compound 0.1 µM, first compound 0.1 µM
[11] = second compound 0.1 µM, first compound 0.316 µM
[12] = second compound 0.1 µM, first compound 1 µM
[13] = second compound 0.316 µM, first compound 0.0316 µM
[14] = second compound 0.316 µM, first compound 0.1 µM
[15] = second compound 0.316 µM, first compound 0.316 µM
[16] = second compound 0.316 µM, first compound 1 µM
[17] = second compound 1 µM, first compound 0.0316 µM
[18] = second compound 1 µM, first compound 0.1 µM
[19] = second compound 1 µM, first compound 0.316 µM
[20] = second compound 1 µM, first compound 1 µM
[21] = curve of first compound, second compound 0.00316 µM
[22] = curve of first compound, second compound 0.01 µM
[23] = second compound 0.00316 µM, first compound 0.0316 µM
[24] = second compound 0.00316 µM, first compound 0.1 µM
[25] = second compound 0.00316 µM, first compound 0.316 µM
[26] = second compound 0.00316 µM, first compound 1 µM
[27] = second compound 0.00316 µM, first compound 3.16 µM
[28] = second compound 0.00316 µM, first compound 10 µM
[29] = second compound 0.01 µM, first compound 0.0316 µM
[30] = second compound 0.01 µM, first compound 0.1 µM
[31] = second compound 0.01 µM, first compound 0.316 µM
[32] = second compound 0.01 µM, first compound 1 µM
[33] = second compound 0.01 µM, first compound 3.16 µM
[34] = second compound 0.01 µM, first compound 10 µM
[35] = second compound 0.0316 µM, first compound 3.16 µM
[36] = second compound 0.0316 µM, first compound 10 µM
[37] = second compound 0.1 µM, first compound 3.16 µM
[38] = second compound 0.1 µM, first compound 10 µM
[39] = second compound 0.316 µM, first compound 3.16 µM
[40] = second compound 0.316 µM, first compound 10 µM
[41] = second compound 1 µM, first compound 3.16 µM
[42] = second compound 1 µM, first compound 10 µM
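Note: spheroids exposed to compounds for seven days before read-out.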

For `CCN1CCN(Cc2ccc(Nc3ncc(F)c(-c4cc(F)c5nc(C)n(C(C)C)c5c4)n3)nc2)CC1` + CC(Nc1ncnc2nc[nH]c12)c1cc2cccc(Cl)c2c(=O)n1-c1ccccc1, the IC50 [1] was > 1000 nM, the IC50 [2] was > 1000 nM and the IC50 [3] was > 1000 nM. The IC50 [4] was > 1000 nM, the IC50 (curve of first compound, second compound 3.16 µM) was > 1000 nM and the IC50 (curve of first compound, second compound 10 µM) was > 1000 nM. For the same compound, the viability, T/C (second compound 0.0316 µM, first compound 0.00316 µM) was 102%, the viability, T/C (second compound 0.0316 µM, first compound 0.01 µM) was 101% and the viability, T/C [5] was 96.1%. The viability, T/C [6] was 103%, the viability, T/C [7] was 87.5% and the viability, T/C [8] was 89.1%. The viability, T/C (second compound 0.1 µM, first compound 0.00316 µM) was 104%, the viability, T/C (second compound 0.1 µM, first compound 0.01 µM) was 106% and the viability, T/C [9] was 111%. It also gave a viability, T/C [10] of 93%, a viability, T/C [11] of 86% and a viability, T/C [12] of 81.3%. The viability, T/C (second compound 0.316 µM, first compound 0.00316 µM) was 100%, the viability, T/C (second compound 0.316 µM, first compound 0.01 µM) was 108% and the viability, T/C [13] was 103%. For the same compound, the viability, T/C [14] was 90.5%, the viability, T/C [15] was 83.8% and the viability, T/C [16] was 79.2%. For the same compound, the viability, T/C (second compound 1 µM, first compound 0.00316 µM) was 97%, the viability, T/C (second compound 1 µM, first compound 0.01 µM) was 97.7% and the viability, T/C [17] was 104%. It also gave a viability, T/C [18] of 82.9%, a viability, T/C [19] of 76% and a viability, T/C [20] of 74.2%. For the same compound, the viability, T/C (second compound 3.16 µM, first compound 0.00316 µM) was 87.8%, the viability, T/C (second compound 3.16 µM, first compound 0.01 µM) was 78.6% and the viability, T/C (second compound 3.16 µM, first compound 0.0316 µM) was 81.8%. For the same compound, the viability, T/C (second compound 3.16 µM, first compound 0.1 µM) was 73.9%, the viability, T/C (second compound 3.16 µM, first compound 0.316 µM) was 71.1% and the viability, T/C (second compound 3.16 µM, first compound 1 µM) was 64%. For the same compound, the viability, T/C (second compound 10 µM, first compound 0.00316 µM) was 59.6%, the viability, T/C (second compound 10 µM, first compound 0.01 µM) was 57.2% and the viability, T/C (second compound 10 µM, first compound 0.0316 µM) was 57.2%. It also gave a viability, T/C (second compound 10 µM, first compound 0.1 µM) of 62.1%, a viability, T/C (second compound 10 µM, first compound 0.316 µM) of 52.8% and a viability, T/C (second compound 10 µM, first compound 1 µM) of 49.8%.

For `Cn1ncc(Cl)c1-c1cc(C(=O)NC(CN)Cc2cccc(F)c2)sc1Cl` (stereo not given), the viability, T/C (compound 0.0316 µM) was 93.5% [middle of 4 runs], the viability, T/C (compound 0.1 µM) was 82.7% [middle of 4 runs] and the viability, T/C (compound 0.316 µM) was 64.7% [middle of 4 runs]. For the same compound, the viability, T/C (compound 1 µM) was 37.6% and 37.7% (2×) and 35.5%, the viability, T/C (compound 3.16 µM) was 21.1% [middle of 4 runs] and the viability, T/C (compound 10 µM) was 13.2% and 12.6% (2×) and 13.7%. The IC50 (curve of compound) was 597 nM [middle of 4 runs].

`Cn1nccc1Nc1nccc(-c2ccn(C(CO)c3ccc(Cl)c(F)c3)c(=O)c2)n1` (stereo not given) + COc1c(OCCCN2CCOCC2)ccc2c3n(c(=NC(=O)c4cnc(N)nc4)nc12)CCN3 was tested, and the IC50 [21] was > 10000 nM, the IC50 [22] was > 10000 nM and the IC50 [1] was < 31.6 nM. For the same compound, the IC50 [2] was < 31.6 nM, the IC50 [3] was < 31.6 nM and the IC50 [4] was < 31.6 nM. It also gave a viability, T/C [23] of 79.8%, a viability, T/C [24] of 78.6% and a viability, T/C [25] of 85.1%. For the same compound, the viability, T/C [26] was 68.8%, the viability, T/C [27] was 69.8% and the viability, T/C [28] was 67.5%. It also gave a viability, T/C [29] of 63.5%, a viability, T/C [30] of 64.7% and a viability, T/C [31] of 67.3%. It also gave a viability, T/C [32] of 61.7%, a viability, T/C [33] of 59.4% and a viability, T/C [34] of 49.1%. The viability, T/C [5] was 39.4%, the viability, T/C [6] was 38.2% and the viability, T/C [7] was 36.2%. It also gave a viability, T/C [8] of 30.5%, a viability, T/C [35] of 32.3% and a viability, T/C [36] of 31.4%. The viability, T/C [9] was 16.1%, the viability, T/C [10] was 15.6% and the viability, T/C [11] was 12.8%. For the same compound, the viability, T/C [12] was 10.8%, the viability, T/C [37] was 8.15% and the viability, T/C [38] was 5.83%. The viability, T/C [13] was 4.89%, the viability, T/C [14] was 4.56% and the viability, T/C [15] was 3.55%. It also gave a viability, T/C [16] of 2.04%, a viability, T/C [39] of 1.28% and a viability, T/C [40] of 1.21%. The viability, T/C [17] was 1.1%, the viability, T/C [18] was 1.11% and the viability, T/C [19] was 0.44%. The viability, T/C [20] was 0.35%, the viability, T/C [41] was 0.28% and the viability, T/C [42] was 0.34%.

In the case of `C#Cc1c(F)ccc2cc(O)cc(-c3ncc4c(N5CC6CCC(C5)N6)nc(OCC56CCCN5CC(F)C6)nc4c3F)c12` (stereo not given) + COc1c(OCCCN2CCOCC2)ccc2c3n(c(=NC(=O)c4cnc(N)nc4)nc12)CCN3, the IC50 [21] is reported as > 10000 nM, the IC50 [22] is reported as 3920 nM and the IC50 [1] is reported as < 31.6 nM. The IC50 [2] was < 31.6 nM, the IC50 [3] was < 31.6 nM and the IC50 [4] was < 31.6 nM. For the same compound, the viability, T/C [23] was 81.9%, the viability, T/C [24] was 87.8% and the viability, T/C [25] was 86.6%. For the same compound, the viability, T/C [26] was 92.2%, the viability, T/C [27] was 72% and the viability, T/C [28] was 58.9%. The viability, T/C [29] was 75.5%, the viability, T/C [30] was 74.1% and the viability, T/C [31] was 69.1%. For the same compound, the viability, T/C [32] was 58.4%, the viability, T/C [33] was 54.3% and the viability, T/C [34] was 40%. For the same compound, the viability, T/C [5] was 40.1%, the viability, T/C [6] was 39.5% and the viability, T/C [7] was 38.7%. It also gave a viability, T/C [8] of 33.8%, a viability, T/C [35] of 25.7% and a viability, T/C [36] of 19.6%. It also gave a viability, T/C [9] of 18.3%, a viability, T/C [10] of 18.8% and a viability, T/C [11] of 14.1%. The viability, T/C [12] was 10.9%, the viability, T/C [37] was 8.08% and the viability, T/C [38] was 6.07%. The viability, T/C [13] was 5.75%, the viability, T/C [14] was 4.83% and the viability, T/C [15] was 4.36%. The viability, T/C [16] was 3.39%, the viability, T/C [39] was 2.56% and the viability, T/C [40] was 1.89%. It also gave a viability, T/C [17] of 1.56%, a viability, T/C [18] of 1.33% and a viability, T/C [19] of 0.98%. The viability, T/C [20] was 1.02%, the viability, T/C [41] was 0.79% and the viability, T/C [42] was 0.41%.

In the case of `CCCS(=O)(=O)Nc1ccc(F)c(C(=O)c2c[nH]c3ncc(-c4ccc(Cl)cc4)cc23)c1F`, the viability, T/C (compound 0.0316 µM) is reported as 94.5% [middle of 4 runs], the viability, T/C (compound 0.1 µM) is reported as 106% (2×) and 102% and 103% and the viability, T/C (compound 0.316 µM) is reported as 113% [middle of 4 runs]. The viability, T/C (compound 1 µM) was 113% [middle of 4 runs], the viability, T/C (compound 3.16 µM) was 105% [middle of 4 runs] and the viability, T/C (compound 10 µM) was 1.33% [middle of 4 runs]. For the same compound, the IC50 (curve of compound) was 5.69 µM [middle of 4 runs].
